Assay results taken from PMC4332545 (ChemMedChem, 2009).

How the values were obtained:
[1] = test system: Frings mouse model of epilepsy; conditions: in vivo; cited from earlier work
[2] = test system: 6 Hz (32 mA) corneal stimulation seizures in CF-1 mice; experiment: 6 Hz partial psychomotor seizure model; assay type: in vivo; conditions: mouse 6 Hz, 30 min after dosing

| Compound | Anticonvulsant activity in the Frings mouse model [1] | Anticonvulsant Assay, icv ED50 [2] |
| --- | --- | --- |
| ZSEEGGSNATKKPYIL [Contulakin-G] | potent anticonvulsant activity |  |
| CC[C@H](C)[C@H](NC(=O)[C@H](Cc1ccc(O)cc1)NC(=O)[C@@H]1CCCN1C(=O)[C@H](CCCNC(=N)N)NC(=O)[C@@H](N)CCCNC(=N)N)C(=O)N[C@@H](CC(C)C)C(=O)O [NT(8–13), H-RRPYIL-OH] |  | 0.0011 nmol |
